≈ marks a conversion by molar mass, not a printed value.
What was measured:
in vitro = in vitro ADME; settings: liver microsomes; mouse liver microsome 1 mg protein/mL, 2 mM NADPH, pH 7.4, 37° C.; read-out: Stability against mouse liver microsome T1/2
[1] = tested on: human non-small cell lung carcinoma cell line QG56; test: cells; settings: QG-56, 96 h, read-out: Growth inhibitory activity against cancer cells QG56 IC50
Description: (§1) The growth inhibitory activities against cancer cells were measured using Cell Counting Kit-8 (Dojindo Laboratories).

[2] = tested on: Human colon cancer cell line HT-29; test: cells; settings: HT-29, 96 h, read-out: Growth inhibitory activity against cancer cells HT29 IC50
Description: as §1

physchem = assay type: physicochemical; settings: aqueous buffer, thermodynamic from solid; 50 mM phosphate buffer (pH 6.5), room temperature (20° C.); read-out: Water solubility

- half-life (in vitro): > 6 h
- IC50 [1]: 21 nM
- IC50 [2]: 5.7 nM
- solubility at 2 h (physchem): 344 µM (≈ 159 µg/mL)
Compound: C#Cc1ccc(Nc2c(C(=O)NOCCO)cc(CN3OCCCC3=O)c(F)c2F)c(F)c1 [Compound G-4, 2-(4-Ethynyl-2-fluoro-phenylamino)-3,4-difluoro-N-(2-hydroxy-ethoxy)-5-(3-oxo-[1,2]oxadinan-2-ylmethyl)-benzamide]

Source: patent US8575391B2, “5-substituted-2-phenylamino benzamides as MEK inhibitors” (priority 2004, dated 2013)
